pIC50: −log10 of the molar value.
biological target: T1, PARP1 (Homo sapiens, UniProt P09874); assay: PARP1 Biochemical Assay (BPS Bioscience kit, chemiluminescence); details: histone-coated plate, biotinilated NAD+, 25° C. for 60 min, luminescence, read-out: PARP 1 inhibition IC50
T1 construct: purchased BPS Bioscience
Outline: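 Human PARP1 (25–75 ng/well) with activated DNA was incubated with compound on histone-coated wells. Biotinylated NAD+ was added and the reaction ran 60 min at 25 °C. Ribosylation was detected by streptavidin-HRP chemiluminescence, % inhibition was normalised to enzyme-free and uninhibited controls, and IC50 was fitted from % inhibition versus concentration.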

T1 sequence (P09874 whole entry): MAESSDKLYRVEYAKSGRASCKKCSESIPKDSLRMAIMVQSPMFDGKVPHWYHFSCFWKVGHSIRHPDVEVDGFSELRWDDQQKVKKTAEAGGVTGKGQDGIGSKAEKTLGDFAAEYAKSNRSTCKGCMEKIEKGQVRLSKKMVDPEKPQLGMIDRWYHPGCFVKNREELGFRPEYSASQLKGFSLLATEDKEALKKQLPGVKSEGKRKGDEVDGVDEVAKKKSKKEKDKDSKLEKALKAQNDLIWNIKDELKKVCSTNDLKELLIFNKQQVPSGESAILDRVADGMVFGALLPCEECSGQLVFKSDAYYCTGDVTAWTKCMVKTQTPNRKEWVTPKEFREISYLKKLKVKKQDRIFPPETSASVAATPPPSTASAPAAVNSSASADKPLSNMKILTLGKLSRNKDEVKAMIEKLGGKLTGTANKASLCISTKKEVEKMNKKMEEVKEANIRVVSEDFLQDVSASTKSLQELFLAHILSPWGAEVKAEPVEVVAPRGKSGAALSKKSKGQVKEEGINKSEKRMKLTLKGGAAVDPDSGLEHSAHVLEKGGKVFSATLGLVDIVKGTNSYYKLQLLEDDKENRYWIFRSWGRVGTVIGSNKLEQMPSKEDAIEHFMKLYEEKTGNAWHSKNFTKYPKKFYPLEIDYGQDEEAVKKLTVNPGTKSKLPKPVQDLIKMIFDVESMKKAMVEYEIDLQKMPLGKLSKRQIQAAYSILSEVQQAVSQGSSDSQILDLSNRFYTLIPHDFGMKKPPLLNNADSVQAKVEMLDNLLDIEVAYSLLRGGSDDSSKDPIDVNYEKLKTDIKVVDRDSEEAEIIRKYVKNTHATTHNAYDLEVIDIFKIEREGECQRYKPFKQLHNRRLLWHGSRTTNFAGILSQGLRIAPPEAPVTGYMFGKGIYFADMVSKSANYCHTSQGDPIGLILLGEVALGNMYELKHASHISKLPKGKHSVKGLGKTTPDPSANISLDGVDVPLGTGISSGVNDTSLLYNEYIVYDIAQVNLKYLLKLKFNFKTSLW

| SMILES | pIC50 |
| --- | --- |
| O=c1[nH]c(CCCN2CC=C(c3ccccc3)CC2)nc2c1CCCC21CC1 [Compound 3, 2′-(3-(4-phenyl-5,6-dihydropyridin-1(2H)-yl)propyl)-6′,7′-dihydro-3′H-spiro[cyclopropane-1,8′-quinazolin]-4′(5′H)-one] | 6.30 to 9.00 |
| O=c1[nH]c(C2=C[C@H](N3CCC(c4ccc(Cl)cc4)CC3)CC2)nc2c1CC1(CC2)CC1 [Compound 56, (R)-2′-(3-(4-(4-chlorophenyl)piperidin-1-yl)cyclopent-1-en-1-yl)-7′,8′-dihydro-3′H-spiro[cyclopropane-1,6′-quinazolin]-4′(5′H)-one] | 6.30 to 9.00 |
| Cc1nc2ccc(N3CCN([C@H]4C=C(c5nc6c(c(=O)[nH]5)CC5(CC6)CC5)CC4)CC3)cc2s1 [Compound 81, (R)-2′-(3-(4-(2-methylbenzo[d]thiazol-6-yl)piperazin-1-yl)cyclopent-1-en-1-yl)-7′,8′-dihydro-3′H-spiro[cyclopropane-1,6′-quinazolin]-4′(5′H)-one] | 5.30 to 6.30 |
| Cc1cnc(N2CCN([C@H]3C=C(c4nc5c(c(=O)[nH]4)CC4(CC5)CC4)CC3)CC2)s1 [Compound 113, (R)-2′-(3-(4-(5-methylthiazol-2-yl)piperazin-1-yl)cyclopent-1-en-1-yl)-7′,8′-dihydro-3′H-spiro[cyclopropane-1,6′-quinazolin]-4′(5′H)-one] | 6.30 to 9.00 |
| CC1(C)CN(c2ccc(F)cc2)CCN1[C@H]1C=C(c2nc3c(c(=O)[nH]2)CC2(CC3)CC2)CC1 [Compound 67, (R)-2′-(3-(4-(4-fluorophenyl)-2,2-dimethylpiperazin-1-yl)cyclopent-1-en-1-yl)-7′,8′-dihydro-3′H-spiro[cyclopropane-1,6′-quinazolin]-4′(5′H)-one] | 3.30 to 5.30 |
| O=c1[nH]c(CCCN2CC=C(c3ccc(F)cc3)CC2)nc2c1CCC1(CC1)C2 [Compound 16, 2′-(3-(4-(4-fluorophenyl)-5,6-dihydropyridin-1(2H)-yl)propyl)-5′,6′-dihydro-3′H-spiro[cyclopropane-1,7′-quinazolin]-4′(8′H)-one] | 3.30 to 5.30 |
| Cc1cccnc1N1CCN([C@H]2C=C(c3nc4c(c(=O)[nH]3)CC3(CC4)CC3)CC2)CC1 [Compound 132, (R)-2′-(3-(4-(3-methylpyridin-2-yl)piperazin-1-yl)cyclopent-1-en-1-yl)-7′,8′-dihydro-3′H-spiro[cyclopropane-1,6′-quinazolin]-4′(5′H)-one] | 6.30 to 9.00 |
| CNC(=O)c1ccnc(N2CCN([C@H]3C=C(c4nc5c(c(=O)[nH]4)CC4(CC5)CC4)CC3)CC2)c1 [Compound 130, (R)—N-methyl-2-(4-(3-(4′-oxo-4′,5′,7′,8′-tetrahydro-3′H-spiro[cyclopropane-1,6′-quinazolin]-2′-yl)cyclopent-2-en-1-yl)piperazin-1-yl)isonicotinamide] | 5.30 to 6.30 |
| O=c1[nH]c(C2=C[C@@H](N3CC=C(c4ccc(F)cc4)CC3)CC2)nc2c1CC1(CC2)CC1 [Compound 51, (S)-2′-(3-(4-(4-fluorophenyl)-5,6-dihydropyridin-1(2H)-yl)cyclopent-1-en-1-yl)-7′,8′-dihydro-3′H-spiro[cyclopropane-1,6′-quinazolin]-4′(5′H)-one] | 6.30 to 9.00 |
| CNC(=O)c1cnc(N2CCN([C@H]3C=C(c4nc5c(c(=O)[nH]4)CC4(CC5)CC4)CC3)CC2)s1 [Compound 104, (R)—N-methyl-2-(4-(3-(4′-oxo-4′,5′,7′,8′-tetrahydro-3′H-spiro[cyclopropane-1,6′-quinazolin]-2′-yl)cyclopent-2-en-1-yl)piperazin-1-yl)thiazole-5-carboxamide] | 6.30 to 9.00 |
| CNC(=O)c1cnc(N2CCN([C@H]3C=C(c4nc5c(c(=O)[nH]4)CC4(CC5)CC4)CC3)CC2)c(Cl)c1 [Compound 103, (R)-5-chloro-N-methyl-6-(4-(3-(4′-oxo-4′,5′,7′,8′-tetrahydro-3′H-spiro[cyclopropane-1,6′-quinazolin]-2′-yl)cyclopent-2-en-1-yl)piperazin-1-yl)nicotinamide] | 6.30 to 9.00 |
| O=c1[nH]c(C2=C[C@H](N3CCN(c4ncc(Cl)cc4Cl)CC3)CC2)nc2c1CC1(CC2)CC1 [Compound 107, (R)-2′-(3-(4-(3,5-dichloropyridin-2-yl)piperazin-1-yl)cyclopent-1-en-1-yl)-7′,8′-dihydro-3′H-spiro[cyclopropane-1,6′-quinazolin]-4′(5′H)-one] | 6.30 to 9.00 |
| O=c1[nH]c(C2=C[C@H](N3CCN(c4ccc(Cl)cc4)CC3)CC2)nc2c1CCCC21CC1 [Compound 41, (R)-2′-(3-(4-(4-chlorophenyl)piperazin-1-yl)cyclopent-1-en-1-yl)-6′,7′-dihydro-3′H-spiro[cyclopropane-1,8′-quinazolin]-4′(5′H)-one] | 3.30 to 5.30 |
| CN(C)C(=O)c1ccc(N2CCN([C@H]3C=C(c4nc5c(c(=O)[nH]4)CC4(CC5)CC4)CC3)CC2)cc1 [Compound 69, (R)—N,N-dimethyl-4-(4-(3-(4′-oxo-4′,5′,7′,8′-tetrahydro-3′H-spiro[cyclopropane-1,6′-quinazolin]-2′-yl)cyclopent-2-en-1-yl)piperazin-1-yl)benzamide] | 3.30 to 5.30 |
| CC1(C)CC(c2nc3c(c(=O)[nH]2)CC2(CC3)CC2)=C[C@@H]1N1CCN(c2ccc(F)cc2)CC1 [Compound 71, (S)-2′-(3-(4-(4-fluorophenyl)piperazin-1-yl)-4,4-dimethylcyclopent-1-en-1-yl)-7′,8′-dihydro-3′H-spiro[cyclopropane-1,6′-quinazolin]-4′(5′H)-one] | 3.30 to 5.30 |
| Cc1cccc(N2CCN(CCCc3nc4c(c(=O)[nH]3)CC3(CC4)CC3)CC2)c1 [Compound 23, 2′-(3-(4-(m-tolyl)piperazin-1-yl)propyl)-7′,8′-dihydro-3′H-spiro[cyclopropane-1,6′-quinazolin]-4′(5′H)-one] | 3.30 to 5.30 |

Now from value to compound:

| pIC50 | SMILES |
| --- | --- |
| 6.30 to 9.00 | O=c1[nH]c(C2=C[C@H](N3CCN(c4cncc(F)c4)CC3)CC2)nc2c1CC1(CC2)CC1 [Compound 142, (R)-2′-(3-(4-(5-fluoropyridin-3-yl)piperazin-1-yl)cyclopent-1-en-1-yl)-7′,8′-dihydro-3′H-spiro[cyclopropane-1,6′-quinazolin]-4′(5′H)-one] |
| 6.30 to 9.00 | O=c1[nH]c(C2=C[C@H](N3CCN(c4cc(F)ccc4F)CC3)CC2)nc2c1CC1(CC2)CC1 [Compound 106, (R)-2′-(3-(4-(2,5-difluorophenyl)piperazin-1-yl)cyclopent-1-en-1-yl)-7′,8′-dihydro-3′H-spiro[cyclopropane-1,6′-quinazolin]-4′(5′H)-one] |
| 6.30 to 9.00 | O=c1[nH]c(C2=C[C@H](N3CCN(c4ncc(Cl)cc4F)CC3)CC2)nc2c1CC1(CC2)CC1 [Compound 146, (R)-2′-(3-(4-(5-chloro-3-fluoropyridin-2-yl)piperazin-1-yl)cyclopent-1-en-1-yl)-7′,8′-dihydro-3′H-spiro[cyclopropane-1,6′-quinazolin]-4′(5′H)-one] |
| 5.30 to 6.30 | Cc1ccc(C)c(N2CCN([C@H]3C=C(c4nc5c(c(=O)[nH]4)CC4(CC5)CC4)CC3)CC2)c1 [Compound 144, (R)-2′-(3-(4-(2,5-dimethylphenyl)piperazin-1-yl)cyclopent-1-en-1-yl)-7′,8′-dihydro-3′H-spiro[cyclopropane-1,6′-quinazolin]-4′(5′H)-one] |
| 5.30 to 6.30 | O=c1[nH]c(C2=C[C@H](N3CCN(c4cc(Cl)ccc4F)CC3)CC2)nc2c1CC1(CC2)CC1 [Compound 138, (R)-2′-(3-(4-(5-chloro-2-fluorophenyl)piperazin-1-yl)cyclopent-1-en-1-yl)-7′,8′-dihydro-3′H-spiro[cyclopropane-1,6′-quinazolin]-4′(5′H)-one] |
| 6.30 to 9.00 | COc1cc(F)ccc1N1CCN([C@H]2C=C(c3nc4c(c(=O)[nH]3)CC3(CC4)CC3)CC2)CC1 [Compound 133, (R)-2′-(3-(4-(4-fluoro-2-methoxyphenyl)piperazin-1-yl)cyclopent-1-en-1-yl)-7′,8′-dihydro-3′H-spiro[cyclopropane-1,6′-quinazolin]-4′(5′H)-one] |
| 6.30 to 9.00 | Cc1ccc(N2CCN([C@H]3C=C(c4nc5c(c(=O)[nH]4)CC4(CC5)CC4)CC3)CC2)cc1 [Compound 73, (R)-2′-(3-(4-(p-tolyl)piperazin-1-yl)cyclopent-1-en-1-yl)-7′,8′-dihydro-3′H-spiro[cyclopropane-1,6′-quinazolin]-4′(5′H)-one] |
| 6.30 to 9.00 | COc1ccc(N2CCN([C@H]3C=C(c4nc5c(c(=O)[nH]4)CC4(CC5)CC4)CC3)CC2)cc1 [Compound 74, (R)-2′-(3-(4-(4-methoxyphenyl)piperazin-1-yl)cyclopent-1-en-1-yl)-7′,8′-dihydro-3′H-spiro[cyclopropane-1,6′-quinazolin]-4′(5′H)-one] |
| 6.30 to 9.00 | O=c1[nH]c(C2=C[C@H](N3CCN(c4ccc(F)cn4)CC3)CC2)nc2c1CC1(CC2)CC1 [Compound 58, (R)-2′-(3-(4-(5-fluoropyridin-2-yl)piperazin-1-yl)cyclopent-1-en-1-yl)-7′,8′-dihydro-3′H-spiro[cyclopropane-1,6′-quinazolin]-4′(5′H)-one] |
| 6.30 to 9.00 | CNC(=O)c1ccc(N2CCN([C@H]3C=C(c4nc5c(c(=O)[nH]4)CC4(CC5)CC4)CC3)CC2)c(C)c1 [Compound 97, (R)—N, 3-dimethyl-4-(4-(3-(4′-oxo-4′,5′,7′,8′-tetrahydro-3′H-spiro[cyclopropane-1,6′-quinazolin]-2′-yl)cyclopent-2-en-1-yl)piperazin-1-yl)benzamide] |
| 6.30 to 9.00 | O=c1[nH]c(C2=C[C@H](N3CCN(c4ccc(Cl)c(F)c4)CC3)CC2)nc2c1CC1(CC2)CC1 [Compound 86, (R)-2′-(3-(4-(4-chloro-3-fluorophenyl)piperazin-1-yl)cyclopent-1-en-1-yl)-7′,8′-dihydro-3′H-spiro[cyclopropane-1,6′-quinazolin]-4′(5′H)-one] |
| 6.30 to 9.00 | Cc1ccnc(N2CCN([C@H]3C=C(c4nc5c(c(=O)[nH]4)CC4(CC5)CC4)CC3)CC2)c1 [Compound 125, (R)-2′-(3-(4-(4-methylpyridin-2-yl)piperazin-1-yl)cyclopent-1-en-1-yl)-7′,8′-dihydro-3′H-spiro[cyclopropane-1,6′-quinazolin]-4′(5′H)-one] |

Reference: US9359367B2, “Tetrahydroquinazolinone derivatives as PARP inhibitors” (Lupin Limited, priority 2012, dated 2016)
